Measurements as given in ChEMBL document CHEMBL4842340, “Development of Cagrilintide, a Long-Acting Amylin Analogue” (J Med Chem, 2021).
≈ marks a conversion by molar mass, not a printed value. *1 amine or outer side, *2 acyl side, *3 side chain or, on linkers, in order; H or OH if unused. Where a SMILES comes first, the peptide text is derived from it. Bridges are numbered along the chain shown (N, C = ends). [ ]: non-standard residue; d: D form. The star is where a group is joined. C20 diacid = O=C(O)CCCCCCCCCCCCCCCCCCC(=O)*; γGlu = O=C(O)[C@H](CCC(=O)[*:2])N[*:1]; AEEA = NCCOCCOCC(=O)O

What was measured:
[1] = Agonist activity at human AMY3R (CT+RAMP3) expressed in Hollex1 cells incubated for 3 hrs by luminescence assay; format: cell-based; conditions: Hollex1, 3 h
Homo sapiens [2] = species: Homo sapiens; assay: Ratio of IC50 for displacement of [125I]-calcitonin from human calcitonin receptor expressed in tk-ts 13 cells to IC50 for displacement of [125I]-amylin from human AMY3R (CTR+RAMP3) expressed in BHK-13 cells; format: cell-based
[3] = Solubility of the compound in lactate at pH 4 by UPLC analysis; format: physicochemical; conditions: lactate buffer
[4] = Solubility of the compound in lactate at pH 5 by UPLC analysis; format: physicochemical; conditions: lactate buffer
Rattus norvegicus [5] = species: Rattus norvegicus; assay: Ratio of IC50 for displacement of [125I]-calcitonin from rat calcitonin receptor expressed in tk-ts 13 cells to IC50 for displacement of [125I]-amylin from rat AMY3R (CTR+RAMP3) expressed in BHK-13 cells; format: cell-based
[6] = Displacement of [125I]-amylin from human AMY3R (CTR+RAMP3) expressed in BHK-13 cells measured after 120 mins by scintillation proximity assay; format: cell-based
[7] = Displacement of [125I]-amylin from rat AMY3R (CTR+RAMP3) expressed in BHK-13 cells measured after 120 mins by scintillation proximity assay; format: cell-based
[8] = Agonist activity at rat calcitonin receptor expressed in BHK-13 cells assessed as increase in intracellular cAMP concentration incubated for 25 mins by CRE luciferase reporter gene assay; format: cell-based; conditions: BHK-13, 25 min
Homo sapiens [9] = species: Homo sapiens; assay: Ratio of EC50 for human calcitonin receptor expressed in BHK570 cells to EC50 for human AMY3R (CT+RAMP3) expressed in Hollex1 cells; format: cell-based
[10] = Solubility of the compound in bis-tris propane at pH 6 by UPLC analysis; format: physicochemical; conditions: bis-tris propane buffer
Insulin (Homo sapiens) [11] = target: Insulin (Homo sapiens) (UniProt P01308); assay: Effect on insulin (unknown origin) amyloid fibril formation assessed as peptide recovery in glycyl-glycine buffer at pH 4 measured after 45 hrs by thioflavin-T fluorescence assay relative to control; set-up: concentration or dose not given beside the values
[12] = Solubility of the compound in lactate at pH 3 by UPLC analysis; format: physicochemical; conditions: lactate buffer
[13] = Displacement of [125I]-calcitonin from human calcitonin receptor expressed in tk-ts 13 cells measured after 120 mins by scintillation proximity assay; format: cell-based; conditions: tk-ts13
Rattus norvegicus [14] = assay: Reduction in food intake in Sprague-Dawley rat at 3 nmol/kg, sc administered as single dose measured after 24 to 48 hrs relative to control; format: functional; set-up: scale not given: the % may be the effect or the level left; conditions: time 24-48 hrs
[15] = Agonist activity at human calcitonin receptor expressed in BHK570 cells assessed as increase in intracellular cAMP concentration incubated for 3 hrs in absence of albumin by CRE luciferase reporter gene assay; format: cell-based; conditions: BHK570, 3 h
[16] = Solubility of the compound in bis-tris propane at pH 8 by UPLC analysis; format: physicochemical; conditions: bis-tris propane buffer
[17] = Agonist activity at rat AMY3R (CT+RAMP3) expressed in tk-ts13 cells assessed as increase in intracellular cAMP level incuabted for 25 mins by CRE luciferase reporter gene assay; format: cell-based; conditions: tk-ts13, 25 min
Rattus norvegicus [18] = species: Rattus norvegicus; assay: Ratio of EC50 for rat calcitonin receptor expressed in BHK-13 cells to EC50 for rat AMY3R (CT+RAMP3) expressed in tk-ts13 cells; format: cell-based
Insulin (Homo sapiens) [19] = target: Insulin (Homo sapiens) (UniProt P01308); assay: Effect on insulin (unknown origin) amyloid fibril formation assessed as lag time in glycyl-glycine buffer at pH 4 measured after 45 hrs by thioflavin-T fluorescence assay
[20] = Solubility of the compound in bis-tris propane at pH 7.5 by UPLC analysis; format: physicochemical; conditions: bis-tris propane buffer
Rattus norvegicus [21] = assay: Reduction in food intake in Sprague-Dawley rat at 3 nmol/kg, sc administered as single dose measured upto 24 hrs relative to control; format: functional; set-up: scale not given: the % may be the effect or the level left; conditions: time hrs <=24
[22] = Displacement of [125I]-calcitonin from rat calcitonin receptor expressed in tk-ts 13 cells measured after 120 mins by scintillation proximity assay; format: cell-based; conditions: tk-ts13
[23] = Solubility of the compound in bis-tris propane at pH 7 by UPLC analysis; format: physicochemical; conditions: bis-tris propane buffer
[24] = Solubility of the compound in bis-tris propane at pH 6.5 by UPLC analysis; format: physicochemical; conditions: bis-tris propane buffer

Insulin (Homo sapiens), sequence (P01308 whole entry): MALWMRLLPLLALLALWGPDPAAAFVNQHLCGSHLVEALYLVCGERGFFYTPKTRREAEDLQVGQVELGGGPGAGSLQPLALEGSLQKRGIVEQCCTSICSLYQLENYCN

Row | EC50 [1] [nM] | solubility [3] [µM] | solubility [4] [µM] | IC50 [6] [nM] | IC50 [7] [nM] | EC50 [8] [nM] | solubility [10] [µM] | Activity (Insulin (Homo sapiens) [11]) [%] | solubility [12] [µM] | IC50 [13] [nM] | EC50 [15] [nM] | solubility [16] [µM] | EC50 [17] [nM] | TIME (Insulin (Homo sapiens) [19]) [h] | solubility [20] [µM] | SMILES | Ratio IC50 (Homo sapiens [2]) | Ratio IC50 (Rattus norvegicus [5]) | Ratio EC50 (Homo sapiens [9]) | Activity (Rattus norvegicus [14]) [%] | Ratio EC50 (Rattus norvegicus [18]) | further results
1 | 0.078 | 200 (≈ 1020 µg/mL) | 200 (≈ 1020 µg/mL) | 0.052 | 0.03 | 1.89 | 200 (≈ 1020 µg/mL) | 87 | 200 (≈ 1020 µg/mL) | 0.085 | 0.608 | 200 (≈ 1020 µg/mL) | 0.132 | 45 | 200 (≈ 1020 µg/mL) | CC[C@H](C)[C@H](NC(=O)[C@@H]1CCCN1C(=O)CNC(=O)[C@H](Cc1ccccc1)NC(=O)[C@H](CC(N)=O)NC(=O)[C@H](CC(N)=O)NC(=O)[C@H](CO)NC(=O)[C@H](CO)NC(=O)[C@H](CCCNC(=N)N)NC(=O)[C@H](Cc1cnc[nH]1)NC(=O)[C@H](CC(C)C)NC(=O)[C@H](Cc1ccccc1)NC(=O)[C@H](CCC(=O)O)NC(=O)[C@H](C)NC(=O)[C@H](CC(C)C)NC(=O)[C@H](CCCNC(=N)N)NC(=O)[C@H](CCC(N)=O)NC(=O)[C@@H](NC(=O)[C@H](C)NC(=O)[C@@H]1CSSC[C@H](NC(=O)[C@H](CCCCN)NC(=O)[C@@H](CCCNC(=N)N)NC(=O)[C@@H](CCCNC(=N)N)NC(=O)COCCOCCNC(=O)COCCOCCNC(=O)CC[C@H](NC(=O)CCCCCCCCCCCCCCCCCCC(=O)O)C(=O)O)C(=O)N[C@@H](CC(N)=O)C(=O)N[C@@H]([C@@H](C)O)C(=O)N[C@@H](C)C(=O)N[C@@H]([C@@H](C)O)C(=O)N1)[C@@H](C)O)C(=O)N[C@@H](CC(C)C)C(=O)N1CCC[C@H]1C(=O)N1CCC[C@H]1C(=O)N[C@H](C(=O)N[C@@H](CC(N)=O)C(=O)N[C@H](C(=O)NCC(=O)N[C@@H](CO)C(=O)N[C@@H](CC(N)=O)C(=O)N[C@H](C(=O)N[C@@H](Cc1ccc(O)cc1)C(N)=O)[C@@H](C)O)C(C)C)[C@@H](C)O ({C20 diacid-γGlu-AEEA-AEEA}-[dR][dR]KCNTATCATQRLAEFLHRSSNNFGPILPPTNVGSNTY-NH2; disulfide 4-9) | 2 | 5 | 8 | 0 | 14 | Activity (Rattus norvegicus [21]): 24%; IC50 [22]: 0.156 nM
2 | 0.091 | 200 (≈ 880 µg/mL) | 200 (≈ 880 µg/mL) | 0.293 | 0.074 | 0.109 | 200 (≈ 880 µg/mL) | 100 | 200 (≈ 880 µg/mL) | 0.264 | 0.067 | 200 (≈ 880 µg/mL) | 0.121 | 26 | 200 (≈ 880 µg/mL) | CC[C@H](C)[C@H](NC(=O)[C@@H]1CCCN1C(=O)CNC(=O)[C@H](Cc1ccccc1)NC(=O)[C@H](CC(N)=O)NC(=O)[C@H](CC(N)=O)NC(=O)[C@H](CO)NC(=O)[C@H](CO)NC(=O)[C@H](Cc1c[nH]cn1)NC(=O)[C@H](Cc1cnc[nH]1)NC(=O)[C@H](CC(C)C)NC(=O)[C@H](Cc1ccccc1)NC(=O)[C@H](CCC(=O)O)NC(=O)[C@H](C)NC(=O)[C@H](CC(C)C)NC(=O)[C@H](CCCNC(=N)N)NC(=O)[C@H](CCC(N)=O)NC(=O)[C@@H](NC(=O)[C@H](C)NC(=O)[C@@H]1CSSC[C@H](NC(=O)[C@H](Cc2cnc[nH]2)NC(=O)CC[C@H](NC(=O)CCCCCCCCCCCCCCCCCCC(=O)O)C(=O)O)C(=O)N[C@@H](CC(N)=O)C(=O)N[C@@H]([C@@H](C)O)C(=O)N[C@@H](C)C(=O)N[C@@H]([C@@H](C)O)C(=O)N1)[C@@H](C)O)C(=O)N[C@@H](CC(C)C)C(=O)N1CCC[C@H]1C(=O)N1CCC[C@H]1C(=O)N[C@H](C(=O)N[C@@H](CC(N)=O)C(=O)N[C@H](C(=O)NCC(=O)N[C@@H](CO)C(=O)N[C@@H](CC(N)=O)C(=O)N[C@H](C(=O)N1CCC[C@H]1C(N)=O)[C@@H](C)O)C(C)C)[C@@H](C)O ({C20 diacid-γGlu}-HCNTATCATQRLAEFLHHSSNNFGPILPPTNVGSNTP-NH2; disulfide 2-7) | 1 | 2 | 1 | 67 | 1 | solubility [23]: 200 µM (≈ 880 µg/mL); solubility [24]: 200 µM (≈ 880 µg/mL); Activity (Rattus norvegicus [21]): 68%; IC50 [22]: 0.134 nM
